# Data: patent US20050002885A1, “Topical compositions and methods for treating pseudofolliculitis barbae and ingrown hair” (priority 1993, published 2005)
# Key:
# [1] = cited from earlier work
# [2] = saturation concentration of acetylsalicylic acid in the solvent mixture; format: physicochemical; settings: solvent mixture: propylene glycol about 10 percent by volume, glycerine about 2 percent by volume, balance isopropyl alcohol/water with isopropyl alcohol about 70 percent by volume
smiles,measurement,setting,value
CC(=O)Oc1ccccc1C(=O)O [acetylsalicylic acid],solubility in water or water based substances,[1],virtually insoluble
same,saturation concentration of the acetylsalicylic acid in this solvent mixture,[2],about 18 percent by weight per unit volume
